Measurements: patent publication US6235493A, “Amino acid substituted-cresyl violet, synthetic fluorogenic substrates for the analysis of agents in individual in vivo cells or tissue” (priority 1998, dated 2001)
Entries after “also recorded” stand apart in the source; their conditions may differ. Starred links: 1 amine or outer side, 2 acyl side, 3 side chain; linkers in the order of their positions; H or OH if unused. Non-standard residues stand in square brackets, D forms with d. Residues, ends and D or L forms follow the SMILES beside them. *: point of attachment. hPhe = N[C@@H](CCc1ccccc1)C(=O)O; Morpholide = C1CN(*)CCO1; CO = O=C([*:1])[*:2]; CH2F = FC*

Legend:
cathepsin B = cathepsin B (Rattus norvegicus, UniProt P00787); assay: Cathepsin B activity in living CC531 colon cancer cells (CSLM, (Z-Arg)^2 -cresyl violet); format: cell-based
Method: An established rat colon carcinoma cell line, CC531, was used for all experiments. The parental cell line was obtained from a 1,2-dimethylhydrazine-induced moderately differentiated and weakly immunogenic colon adenocarcinoma in WAG-Rij rats (44). Cells were cultured in vitro at 37° C. as monolayers in Dulbecco's modification of Eagle's medium (ICN Biomedicals, Irvine, Ayrshire, UK) supplemented with 10% (w/v) fetal bovine serum, 2 mM glutamine, 100 IU penicillin/ml and 100 μg streptomycin/ml. Cells were washed in PBS and, after detachment by scraping and centrifugation (250 g, room temperature, 10 min), a single cell suspension at a final concentration of 1×10^6 cancer cells in 50 μl of PBS was obtained with a viability of at least 95% (45,46). Cell suspension were either used for cytochemical purposes or for in vivo administration to induce metastases in the liver.
Cathepsin B activity was detected in real-time in living CC531 cells and freshly prepared living rat hepatocytes after isolation by collagenase perfusion of livers of male mature rats after 24 h of starvation (47). At time point zero, cell preparations were diluted 20-fold in PBS containing either 10 μM (Z-Arg)^2 -cresyl violet (Enzyme Systems Products, Dublin, Calif.) as fluorogenic substrate for cathepsin B (48) or 10 μM substrate and 20 μM FMK (Protek, Dublin, Calif.), as selective cathepsin B inhibitor (40,41). The fluorogenic substrate is not fluorescent but after proteolytic cleavage, liberated cresyl violet is fluorescent. Synthesis of the substrate is described elsewhere in Ref. 48. The substrate was dissolved first in dimethyl formamide (final concentration in the incubation medium was 1% (v/v)). An aliquot of 100 μl of the cell suspensions was brought into a well formed by a stainless steel ring attached to a glass slide (49). Images of cells were captured in real-time with a Leica CSLM fitted to a Leica Fluovert inverted microscopic equipped with a PL APO oil-immersion objective (×63, NA 1.40). Excitation was performed at a wavelength of 560 nm and fluorescence was captured at greater than 580 nm. Excitation with the use of green light is harmless to living cells. The pinhole aperture was set at 100 giving an optimized image (50). With fixed pinhole, filter combination and a laser power setting adjusted to give minimal fading, the photomultiplier gain and photometric offset were optimized. Cells were subjected to optical serial sectioning after each 60 s of incubation up to 300 s. Images in the X-Y plane were recorded with intervals of 0.5 μm in the Z direction. For analysis, each optical section was averaged eight times. Images were recorded in a 512×512 pixel format. The size of each pixel represented 0.015 μm^2 in the object. […]

[1] = cited from earlier work
[2] = cited from earlier work; remark: listed apart in the source

cathepsin B, sequence (P00787 80-333): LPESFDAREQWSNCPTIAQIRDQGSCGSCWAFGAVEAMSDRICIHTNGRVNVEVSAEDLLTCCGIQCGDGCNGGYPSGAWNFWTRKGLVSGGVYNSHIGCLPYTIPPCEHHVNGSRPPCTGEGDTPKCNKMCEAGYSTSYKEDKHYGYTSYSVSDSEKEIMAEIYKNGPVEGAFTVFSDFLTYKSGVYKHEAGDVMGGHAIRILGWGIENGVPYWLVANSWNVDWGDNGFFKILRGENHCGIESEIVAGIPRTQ

SMILES: O=C(CF)[C@H](CCc1ccccc1)NC(=O)[C@H](Cc1ccccc1)NC(=O)N1CCOCC1 [FMK, Mu-Phe-homoPhe-fluoro-methylketone] ({Morpholide-CO}-Phe-[hPhe]-CH2F)
- inhibition of intracellular cathepsin B activity (cathepsin B; CC531 cells, 20 μM FMK): not intracellular cathepsin B activity; also recorded: Activity was present intracellularly
- inhibition of plasma membrane-bound (extracellular) cathepsin B activity (cathepsin B; CC531 cells, 20 μM FMK, 10 μM (Z-Arg)^2 -cresyl violet, 5 min, room temperature): inhibited only extracellular; also recorded: inhibited the plasma membrane-bound activity completely; also recorded: Plasma membrane-bound activity was inhibited
- uptake by living cells (cathepsin B; inferred from lack of inhibition of intracellular activity): had not been taken up by the living cells
- toxicity [1]: non-toxic
- LD50 relative to the dosages used (20 mg/kg) ([1]; this type of FMK): at least 20 fold
- water solubility [2]: water-soluble
